# Literature values as cited in patent US20250002523A1, “RUBUSOSIDE GLUCOSIDES” (SYMRISE AG, priority 2021, published 2025).
# Details: reported in the background section
smiles,measurement,value
C=C1C[C@@]23CC[C@H]4[C@@](C)(CCC[C@@]4(C)C(=O)O[C@@H]4O[C@H](CO)[C@@H](O)[C@H](O)[C@H]4O)[C@@H]2CC[C@]1(O[C@@H]1O[C@H](CO)[C@@H](O)[C@H](O)[C@H]1O)C3 [Rubusoside],sweet taste impression relative to sucrose,200 times as strong as sucrose
